Test [1] relates to Caco-2. As to the kind of experiment: Cytotoxicity against human Caco-2 cells at 10 uM after 72 hrs by MTT assay. It counts as functional, cell-based.
In test [2] the test system is T-24. As to the kind of experiment: Growth inhibition of human T24 cells assessed as reduction of cell count after trypsinization at 10 uM after 72 hrs by MTT assay. It counts as functional, cell-based. (In general: Tetrazolium dyes change colour on reduction, which living cells bring about.)
In test [3] the test system is T-24. As to the kind of experiment: Inhibition of human T24 cells invasion on Matrigel after 24 hrs. It counts as functional, cell-based.
Test [4] addresses Matrix metalloproteinase-9 (Homo sapiens) (UniProt P14780). As to the kind of experiment: Induction of MMP9 activity in human T24 cells after 1 hr by zymography. It counts as cell-based. Particulars: T-24.
Test [5] relates to T-24. As to the kind of experiment: Cytotoxicity against human T24 cells assessed as inhibition of clones formation at 10 uM after 1 week by clonogenic assay. It counts as functional, cell-based.
The test system of test [6] is J82. Put plainly: Cytotoxicity against human J82 cells at 10 uM after 72 hrs by MTT assay. It counts as functional, cell-based.
Test [7] relates to T-24. As to the kind of experiment: Inhibition of human T24 cell migration by wound healing assay. It counts as functional, cell-based.
The subject of test [8] is MDA-MB-231. Put plainly: Cytotoxicity against human MDA-MB-231 cells at 10 uM after 72 hrs by MTT assay. It counts as functional, cell-based.
Test [9] has as its system T-24. Put plainly: Cytotoxicity against human T24 cells at 10 uM after 72 hrs by MTT assay. Format: functional, cell-based.

The structures appear in SMILES notation. Active and inactive are the calls of the source. The rule behind the calls is not given here.

This note sets out measurements from ChEMBL document CHEMBL1287719, “N⁶-Alkyladenosines: Synthesis and evaluation of in vitro anticancer activity” (Bioorg Med Chem, 2010).

Sequence of Matrix metalloproteinase-9 (Homo sapiens) (P14780 whole entry): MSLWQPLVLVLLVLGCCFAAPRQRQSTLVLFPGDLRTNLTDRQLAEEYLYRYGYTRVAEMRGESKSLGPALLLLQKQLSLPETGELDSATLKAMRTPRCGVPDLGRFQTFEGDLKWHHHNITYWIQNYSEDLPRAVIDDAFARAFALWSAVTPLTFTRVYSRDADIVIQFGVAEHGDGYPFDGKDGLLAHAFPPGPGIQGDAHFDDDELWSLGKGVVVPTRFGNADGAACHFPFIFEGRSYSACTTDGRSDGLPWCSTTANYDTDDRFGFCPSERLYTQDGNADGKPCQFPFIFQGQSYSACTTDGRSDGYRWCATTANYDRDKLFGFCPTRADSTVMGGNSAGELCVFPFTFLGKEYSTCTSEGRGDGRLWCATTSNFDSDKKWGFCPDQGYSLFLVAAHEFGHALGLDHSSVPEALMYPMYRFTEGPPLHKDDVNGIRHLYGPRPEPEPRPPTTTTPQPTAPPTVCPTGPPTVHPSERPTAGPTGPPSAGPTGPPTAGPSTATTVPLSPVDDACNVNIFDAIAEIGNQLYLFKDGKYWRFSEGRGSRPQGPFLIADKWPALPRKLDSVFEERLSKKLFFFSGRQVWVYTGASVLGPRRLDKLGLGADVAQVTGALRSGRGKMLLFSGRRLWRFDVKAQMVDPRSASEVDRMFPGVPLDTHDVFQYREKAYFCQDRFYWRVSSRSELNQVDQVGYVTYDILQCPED

For `C=CCNc1ncnc2c1ncn2[C@@H]1O[C@H](CO)[C@@H](O)[C@H]1O`, the result in test [1], in [2], in test [5], in [6], in test [8] and in test [9] was Active. Moreover, the inhibition result in test [3] was “inactive”. Also, the result in test [4] and in test [7] was inactive.

As to `OC[C@H]1O[C@@H](n2cnc3c(NCc4ccccc4)ncnc32)[C@H](O)[C@@H]1O`, the result in test [1], in test [2], in test [5], in test [6], in [8] and in [9] was Active. Also, in [3], the inhibition entry was “inactive”. Moreover, the result in test [4] and in [7] was inactive.

Consider `CCCCNc1ncnc2c1ncn2[C@@H]1O[C@H](CO)[C@@H](O)[C@H]1O`, for which the outcome in [1], in test [2], in [5], in test [6], in test [8] and in test [9] was Active. In test [3], the inhibition result is “inactive”. Moreover, the outcome in test [4] and in [7] was inactive.

`CC(C)CCNc1ncnc2c1ncn2[C@@H]1O[C@H](CO)[C@@H](O)[C@H]1O`: the outcome in [1], in [2], in test [5], in [6], in test [8] and in [9] was Active. Moreover, in [3], the inhibition entry was “inactive”. Moreover, the result in test [4] and in test [7] was inactive.

On to `OC[C@H]1O[C@@H](n2cnc3c(NCC4CCC4)ncnc32)[C@H](O)[C@@H]1O`, for which the result in test [1], in test [2], in test [5], in [6], in test [8] and in [9] was Active. For the same compound, the inhibition entry in test [3] was “inactive”. For the same compound, the outcome in test [4] and in [7] was inactive.
